# Read-outs that look alike come from different tables or passages of the source.
# Tests used:
# [1] = system: COC Apt-AuNP (biotin-ended COC aptamer) (DNA, aptamer) AGGAATTCAGATCTCCCTGCAGTTCGAGGAAGAATAGACCTGCCTTCTAATAGCTCGAGGAGCTCAGGATCCCG; test: competitive lateral flow assay
# [2] = system: MET Apt-AuNP (biotin-ended MET aptamer) (DNA, aptamer) AGGAATTCAGATCTCCCTGCAGAAAACAGACCACCCACTTTGAATCCACTTGACTCGAGGAGCTCAGGATCCCG; test: competitive lateral flow assay
# [3] = system: COC aptamer (DNA, aptamer) AGGAATTCAGATCTCCCTGCAGTTCGAGGAAGAATAGACCTGCCTTCTAATAGCTCGAGGAGCTCAGGATCCCG; test: isothermal titration calorimetry; details: 100 mM NaCl, 2.7 mM KCl, 2 mM MgCl2
# [4] = system: MET aptamer (DNA, aptamer) AGGAATTCAGATCTCCCTGCAGAAAACAGACCACCCACTTTGAATCCACTTGACTCGAGGAGCTCAGGATCCCG; test: isothermal titration calorimetry; details: 100 mM NaCl, 2.7 mM KCl, 2 mM MgCl2
"binding ([1]; synthetic saliva, gold nanoparticle conjugate, COC-BSA test line, positive at 5.0 ng/mL to 1.0 µg/mL)",binding [2],Kd [3] [nM],binding [1],"binding ([1]; synthetic saliva, gold nanoparticle conjugate, COC-BSA test line)",Kd [4] [nM],Structure (SMILES)
yes,no,306,–,–,–,COC(=O)[C@H]1[C@@H](OC(=O)c2ccccc2)C[C@@H]2CC[C@H]1N2C
–,no,–,no,–,–,CCCCCc1cc(O)c2c(c1)OC(C)(C)[C@@H]1CCC(C)=C[C@@H]21
–,yes,–,–,no,570,CN[C@@H](C)Cc1ccccc1
–,no,–,no,–,–,COc1ccc2c3c1O[C@H]1[C@@H](O)C=C[C@H]4[C@@H](C2)N(C)CC[C@@]341
